Common to all, as to type: cell-based, human
For experiment [1], the system named is mitochondrial O2- in HepG2. Briefly: Mitochondrial O2- levels, MitoSOX probe, flow cytometry. The conditions noted are these: HepG2, 5 and 10 µM, any of the doses or times assayed. The protocol:
The mitochondrial superoxide anion (O2^−) levels were measured using MitoSOX™Red reagent (Molecular Probes, Eugene, OR, USA), which permeates living cells where it selectively targets mitochondria and is oxidized by superoxide.
HepG2 cells were cultured in a 6-well cell culture plate at a density of 2 × 10^5 cells per well 24 h before starting the treatment with R2-viniferin. The medium was renewed and cells were incubated with R2-viniferin as described above. After treatment, cells were washed and incubated with 20 μM H2DCF-DA or 4 μM MitoSOX™ for 30 min at 37 °C in the dark. The probe solution was then withdrawn and, after washing with PBS, the cells were trypsinized. The fluorescence intensity from living cells was measured by flow cytometry (DCF λex = 485/20 and λem = 528/20, MitoSOX λex = 485/20 and λem = 620/20) in a Beckman Coulter Gallios Flow cytometer in the General Research Services SGIker of the UPV/EHU. At least 10,000 events were detected. Data obtained from flow cytometry were analyzed using Summit 4.3 software (Dako, Hovedstaden, Denmark). Intracellular ROS and mitochondrial O2^− were expressed as the percentage of the fluorescence intensity in control cells at the same time of incubation.
(A flow cytometer gives signals particle by particle.)

Experiment [2] concerns caspase-3 activity in HepG2. Briefly: Caspase-3 activity, Ac-DEVD-AMC fluorogenic substrate. The protocol: The activity of caspase-3 was measured using the specific synthetic tetrapeptide fluorogenic substrate Ac-DEVD-AMC (BD Pharmigen Biosciences, San Diego, CA, USA). The assay was carried out in 96-well plates in a total volume of 100 µL, with 37 μM of the substrate and 50 µg of protein in the assay medium in 100 mM HEPES, pH 7.4, containing 200 mM NaCl, 0.2% CHAPS, 2 mM EDTA, 20% glycerol, and 5 mM dithiothreitol (DTT).
In the presence of caspase-3, the Ac-DEVD-AMC substrate is hydrolyzed and the fluorogenic compound AMC is released. The activity was determined by continuous recording of the fluorescence at λex = 360 nm and λem = 460 nm at 37 °C for 2 h every 5 min in a Synergy HT microplate reader (BioTek, Winooski, VT, USA). Results were expressed as the percentage of the fluorescence in control cells.

In experiment [3] the test system is HepG2. The experiment in a line: Cell cycle analysis by flow cytometry (propidium iodide), HepG2. The conditions noted are these: HepG2, 10 µM, mean ± SE. The protocol: Exponentially growing cells were seeded in 6-wells plates (200,000 cells HepG2 and 180,000 cells Hep3B) 24 h before R2-viniferin treatment. On the day of treatment, the culture medium was replaced with culture medium containing R2-viniferin or vehicle solution (control).
After a treatment, cells were detached by trypsinization and fixed overnight at 4 °C in 70% ice-cold ethanol diluted in phosphate buffer saline (PBS). The ethanol was then discarded and the cells were washed with ice-cold PBS and finally stained with 25 μg/mL of propidium iodide (Sigma-Aldrich, St Louis, MO, USA) in the presence of 200 μg/mL ribonuclease A (Roche Biochemicals, Indianapolis, IN, USA) for 30 min at room temperature in the dark. Flow cytometry analysis (Beckman Coulter Gallios) was carried out from a total number of 10,000 events acquired in the General Research Services SGIker of the UPV/EHU. Analysis of the data was performed using Summit 4.3 software (Dako, Glostrup, Hovedstaden, Denmark).

For experiment [4], the system named is HepG2. Briefly: Cell viability, crystal violet assay, HepG2. The conditions noted are these: mean ± standard error. From the text:
The human hepatoma cell line HepG2 was obtained from the American Tissue Culture Collection (ATCC, Manassas, VA, USA). The human hepatoma cell line Hep3B was obtained from the European Collection of Authenticated Cell Cultures (ECACC, Porton Down, Salisbury, Wiltshire, UK). HH4 non-transformed human hepatocyte cell line (kindly provided by Dr. I. Fabregat, Molecular Oncology, Bellvitge Biomedical Research Institute, Spain) was established as described.
HepG2 and Hep3B cell lines were maintained in Eagle’s Minimum Essential Medium and HH4 cell line was grown in Ham´s F12 Nutrient Mixture (Sigma-Aldrich, St Louis, MO, USA). Both culture media were supplemented with 10% heat inactivated fetal bovine serum, 2 mM L-glutamine and antibiotics (0.1 mg/mL streptomycin and 100 U/mL penicillin) (Sigma-Aldrich, St Louis, MO, USA). Cell cultures were grown in an incubator at 37 °C with 5% CO2 atmosphere. After reaching approximately 80% of confluence, cells were detached in a solution of 0.1% trypsin and 0.04% EDTA and plated as required for further experiments.
Cell lines were seeded into 96-well plates at 5 × 10^3 (HepG2) and 3 × 10^3 (Hep3B and HH4) cells/well 24 h before treatment. Increasing concentrations of the monomer trans-resveratrol, the dimers ampelopsin A and trans-ε-viniferin and the tetramers isohopeaphenol, hopeaphenol, R2-viniferin and R-viniferin were then added and cells were incubated for 24, 48, and 72 h. Stilbenes were dissolved in dimethyl sulfoxide (DMSO), Sigma-Aldrich, St Louis, MO, USA) at a final concentration of 0.01%. The same amount of DMSO was added to control cells. After treatment, the cell viability was determined using the crystal violet assay. The absorbance was recorded at 590 nm in a Synergy HT microplate reader (BioTek, Winooski, VT, USA). Cell viability was calculated as the percentage of viable cells treated with stilbene versus untreated control cells using the following equation: Cell viability (%) = [OD (Treatment) − OD (Blank)]/[OD (Control) − OD (Blank)] × 100. The cytotoxic effect of stilbenes was determined by calculating IC50 values using non-linear regression analysis (GraphPad Prism 6, San Diego, CA, USA).
The statistical package SPSS 19.0 (SPSS Inc. Chicago, IL, USA) was used for data analysis. The results were expressed as mean ± standard error (SE) from at least three experiments. Statistical significance for the differences of the means was estimated by parametric Student’s t-test. Differences between means were considered statistically significant for p < 0.05. IC50 values were derived from fitting the data to a sigmoidal dose-response curve with a three-parameter logistic model using Graph Pad Prism 6.

Consider `Oc1ccc([C@H]2c3c(O)cc(O)cc3[C@H]3c4c(cc(O)cc4[C@@H]2c2cc(/C=C/c4cc(O)cc5c4[C@H](c4cc(O)cc(O)c4)[C@@H](c4ccc(O)cc4)O5)ccc2O)O[C@@H]3c2ccc(O)cc2)cc1` [R2-Viniferin], for which the “Effect on mitochondrial O2-” value in experiment [1] is listed as “no significant effect”. Besides, the “Effect on caspase-3 activity” value in experiment [2] (HepG2, 5 µM) is recorded as “increased caspase-3 activity at 72 h”; in experiment [2] (HepG2, 10 µM), “increased the caspase-3 activity significantly from 24 h to 72 h”. Besides, the “Cell cycle G0/G1 (percentage of cells)” value in the experiment with HepG2 [3] (24 h) was 65.6 ± 11.7%; with HepG2 [3] (48 h) it was 71.7 ± 10.9%; in the experiment with HepG2 [3] (72 h) it was 75.5 ± 7.8%. Also, the “Cell cycle G2/M (percentage of cells)” value is on record as 22.5 ± 8.5% in the experiment on HepG2 [3] (24 h), 19.3 ± 6.5% in the experiment on HepG2 [3] (48 h) and 15.0 ± 2.2% with HepG2 [3] (72 h). Also, the “Cell cycle S (percentage of cells)” value in the experiment on HepG2 [3] (24 h) is given as 11.9 ± 3.2%; in the experiment on HepG2 [3] (48 h), 9.0 ± 4.5%; in the experiment with HepG2 [3] (72 h), 9.5 ± 5.6%. For the same compound, the “SubG0 (percentage of total cells)” value worked out at 8.5 ± 2.7% with HepG2 [3] (24 h), 22.4 ± 11.0% in the experiment on HepG2 [3] (48 h) and 71.0 ± 2.1% with HepG2 [3] (72 h). In addition, the IC50 (commonly the midpoint of a concentration-inhibition curve) with HepG2 [4] (72 h) was 9.7 ± 0.4 µM; with HepG2 [4] (Homo sapiens, HepG2, 24 h, 24 h), above 200 µM; in the experiment on HepG2 [4] (Homo sapiens, HepG2, 48 h, 48 h), 10.2 ± 8.2 µM; in the experiment on HepG2 [4] (Homo sapiens, HepG2, 72 h, 72 h) it was below 10 µM.

Source of the values: article PMC7346113, “Screening of Natural Stilbene Oligomers from Vitis vinifera for Anticancer Activity on Human Hepatocellular Carcinoma Cells” (Antioxidants, 2020).
